# From patent publication US7378081B2, “Composition and method for direct visualization of the human appendix” (Vincon Research Enterprises, LLC, priority 2003, dated 2008)
# System: human appendix
# Experiment: Clinical data on delivery and concentration of diatrizoate iodine in the appendix
# Format: in vivo
# Conditions: following oral administration
# Method: The bioavailability and release profile of diatrizoate appear dependent on both concentration and pH, which explains why
# Critical to efficacy of the composition are ‘gasless’ enteric conditions and neutralization of the harsh acidity of gastric secretions that appear to inhibit the transit of intact diatrizoate to the appendix. Clinical trials show optimal appendiceal visualization at a critical concentration of 2.8 mg % iodine; however 5 mg % is considered optimal for ideal image contrast.
compound,measurement,value
"CC(=O)Nc1c(I)c(NC(C)=O)c(I)c(C(=O)O)c1I [diatrizoate, 1-deoxy-1-(methylamino)-D-glucitol-3,5-diacetamido-2,4,6-triiodobenzoate]",time until organically bound iodine is delivered and concentrated in the human appendix,approximately 50 minutes
